According to patent US20260042771A1, “HETEROCYCLIC COMPOUND FOR INDUCING DEGRADATION OF G12V MUTANT KRAS PROTEIN” (Astellas Pharma Inc., priority 2022, published 2026):

What was measured:
RAS G12V = target: T1, RAS G12V (Homo sapiens, UniProt P01116, G12V); assay: Test Example 1: RAS G12V degradation activity by Cell ELISA in PA-TU-8902; type: cell-based; conditions: for DC50: 50% degradation concentration of RAS G12V, PA-TU-8902 cells, 24 hours, Cell ELISA, corrected with β-actin; for Dmax: PaTu 8902, degradation rate at the most active concentration, DMSO = 0%, Example No. 7 at 3 μM = 100%, PA-TU-8902, 24 hours
T1 construct: host or cells: PA-TU-8902 human pancreatic cancer cells
T1 sequence (P01116 1-188 isoform P01116-2 G12V): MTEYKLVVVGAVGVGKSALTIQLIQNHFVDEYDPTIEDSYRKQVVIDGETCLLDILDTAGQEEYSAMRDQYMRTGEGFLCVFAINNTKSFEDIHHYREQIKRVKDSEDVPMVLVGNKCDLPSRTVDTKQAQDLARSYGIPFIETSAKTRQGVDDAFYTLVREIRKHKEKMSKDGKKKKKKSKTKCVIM
Method: Test Example 1: Evaluation of RAS G12V Degradation Activity on Human KRAS G12V Mutant-Positive Pancreatic Cancer Line PA-TU-8902
The RAS G12V degradation activity of test compounds was evaluated by measuring the expression levels of RAS G12V by Cell ELISA.
PA-TU-8902 cells (DSMZ, ACC 179) were seeded at 36 μL per well on 384-well plates (from Greiner bio-one) to give 1.5×10^4 cells per well. As for the cell culture conditions, DMEM medium (from Sigma-Aldrich) containing 10% fetal bovine serum (from Cytiva) was used in the presence of 5% CO2 at 37° C.
The next day, the test compounds (10 points having final concentrations in the range of 3 μM to 0.1 nM), the compound of Example No. 7 having a final concentration of 3 μM as a positive control and dimethyl sulfoxide (DMSO), which was the solvent for the test compounds, as a negative control were diluted 100-fold with a fresh medium and were added at 4 μL per well. The cells were cultured for 24 hours.
The next day, the culture supernatant was removed, and 4% paraformaldehyde phosphate buffer (from FUJIFILM Wako Pure Chemical Corporation) was added at 20 μL per well. The plates were allowed to stand for 30 minutes at room temperature to thus immobilize the cells. Then, the supernatant was removed, and 0.1% Triton X-100 (from Amersham Biosciences)-containing Phosphate buffered saline (PBS) was added at 20 μL per well. After allowing to stand at room temperature for 10 minutes, the supernatant was removed. PBS was added at 25 μL per well, and the supernatant was removed to thus wash each well. The washing was performed twice in total. Subsequent washing operations were performed in the same manner. Next, the supernatant was removed, and 0.5% sodium dodecyl sulfate (SDS; from ThermoFisher Scientific)-containing PBS was added at 20 μL per well. After allowing to stand at room temperature for 10 minutes, the supernatant was removed by centrifugation of the plates. After washing with PBS, the supernatant was removed by centrifugation, and blocking solution (PVDF Blocking Reagent for Can Get Signal [from TOYOBO Co., Ltd.]) was added at 20 μL per well. After allowing to stand for 30 minutes at room temperature, the supernatant was removed by centrifugation and a solution obtained by diluting, as primary antibodies, anti-Ras (G12V Mutant Specific) antibody (Ras (G12V Mutant Specific) (D2H12) Rabbit mAb; from Cell Signaling Technology; 500-fold diluted) and […] (Anti-beta Actin antibody; from Abcam; 5,000-fold diluted) with Can Get Signal Solution 2 (from TOYOBO Co., Ltd.) was added at 15 μL per well. The plates were allowed to stand overnight at 4° C.
The next day, the supernatant was removed by centrifugation and washed with PBS. The supernatant was removed by centrifugation, a solution obtained by diluting, as secondary antibodies, anti-rabbit IgG antibody (IRDye 800CW Goat anti-Rabbit IgG; from LI-COR Biosciences) and anti-mouse IgG antibody (IRDye 680RD Donkey anti-Mouse IgG; from LI-COR Biosciences) 1,000-fold with Can Get Signal Solution 2 was added at 15 μL per well. After allowing to stand at room temperature for 1 hour, the supernatant was removed by centrifugation and washed with PBS. After removing the supernatant, the plates were dried with air at room temperature for 2 hours or more, and the 700 nm and 800 nm fluorescent signals were measured with Aerius (from LI-COR Biosciences).
The degradation rate of RAS G12V was calculated with the RAS G12V signaling value at the time of addition of DMSO taken as 0%, which was corrected with the signaling value of β-actin, and with the RAS G12V signaling value at the time of addition of the compound of Example No. 7 at a final concentration of 3 μM taken as 100%. […]

[1] = tested on: human KRAS G12V mutant-positive pancreatic cancer line PA-TU-8902; assay: Test Example 3: non-anchorage-dependent cell growth inhibition, spheroid 3D culture; type: cell-based; conditions: PaTu 8902, 144 h, PA-TU-8902 spheroid 3D culture, 6 days, CellTiter Glo 2.0
Method: Test Example 3: Evaluation of Non-Anchorage-Dependent Cell Growth Inhibitory Effect on Human KRAS G12V Mutant-Positive Pancreatic Cancer Line PA-TU-8902
The non-anchorage-dependent cell growth inhibitory effect of test compounds was evaluated by spheroid 3D cell culture.
PA-TU-8902 cells were seeded on low-cell-adhesive round bottom 384-well plates (PrimeSurface: from Sumitomo Bakelite) at 36 µL/well to give 5×10^2 cells per well. The cell culture was performed under the same conditions as in Test Example 1.
The next day, the test compounds (8 to 10 points having final concentrations in the range of 3 μM to 0.1 nM) and DMSO, which was the solvent for the test compounds, as a negative control were diluted 100-fold with a fresh medium and were added at 4 μL per well. After culturing in the presence of 5% CO2 at 37° C. for 6 days, CellTiter Glo 2.0 (from Promega) was added at 20 μL per well. After stirring with a plate mixer (from FINEPCR) at normal temperature for 1 hour, the luminescent signals were measured with ARVO X3 (from PerkinElmer).
With the signaling value in treatment with DMSO taken as 0% inhibition and with the signaling value in the medium alone without cells taken as 100% inhibition, the 50% inhibitory concentration values (IC50) were calculated by Sigmoid-Emax nonlinear regression analysis. The inhibition rate at 30 nM was calculated for Example No. 17.

Row | Compound | DC50 (RAS G12V) [nM] | Dmax (RAS G12V) [%] | IC50 [1] [nM]
1 | Cc1c(F)cc2[nH]ncc2c1-c1c(C2CC2)cc2c(N3CC[C@H]3C(N)=O)nc(OC[C@@H]3CCN(C)C3)nc2c1OCc1ccc(C(=O)N2CCN(Cc3ccc4c(N5CCC(=O)NC5=O)nn(C)c4c3)C[C@@H]2C)cc1 (atropisomer, axis not shown) [Example 7] | 38 | 103 | 55
2 | Cc1c(F)cc2[nH]ncc2c1-c1c(C2CC2)cc2c(N3CCOCC3)nc(OCC(C)(C)CN(C)C)nc2c1OCc1ccc(C(=O)N2CCN(Cc3ccc4c(c3)n(C)c(=O)n4N3CCC(=O)NC3=O)C[C@@H]2C)cc1 (atropisomer, axis not shown) [Example 9] | 6 | 88 | 47
3 | Cc1c(F)cc2[nH]ncc2c1-c1c(C2CC2)cc2c(N3CC(C#N)C3)nc(OCC(C)(C)CN(C)C)nc2c1OCc1ccc(C(=O)N2CCN(Cc3ccc4c(c3)n(C)c(=O)n4N3CCC(=O)NC3=O)C[C@@H]2C)cc1 (atropisomer, axis not shown) [Example 10] | 6 | 88 | 22
4 | CO[C@@H](C)COc1nc(N2CC(C#N)C2)c2cc(C3CC3)c(-c3c(C)c(F)cc4[nH]ncc34)c(OCc3ccc(C(=O)N4CCN(Cc5ccc6c(N7CCC(=O)NC7=O)nn(C)c6c5)CC4)cc3)c2n1 (atropisomer, axis not shown) [Example 12] | 13 | 87 | 33
5 | CO[C@@H](C)COc1nc(N2CC(C#N)C2)c2cc(C3CC3)c(-c3c(C)c(F)cc4[nH]ncc34)c(OCc3ccc(C(=O)N4CCC5(CN(Cc6ccc7c(N8CCC(=O)NC8=O)nn(C)c7c6)C5)C4)cc3)c2n1 (atropisomer, axis not shown) [Example 13] | 27 | 104 | 55
6 | CO[C@@H](C)COc1nc(N2CC(C#N)C2)c2cc(C3CC3)c(-c3c(C)c(F)cc4[nH]ncc34)c(OCc3ccc(C(=O)N4CC[C@H](CN(C)Cc5ccc6c(N7CCC(=O)NC7=O)nn(C)c6c5)C4)cc3)c2n1 (atropisomer, axis not shown) [Example 15] | 92 | 85 | 139
7 | CO[C@@H](C)COc1nc(N2CC(C#N)C2)c2cc(C3CC3)c(-c3c(C)c(F)cc4[nH]ncc34)c(OCc3ccc(C(=O)N4CC5(CN(Cc6ccc7c(N8CCC(=O)NC8=O)nn(C)c7c6)C5)C4)cc3)c2n1 (atropisomer, axis not shown) [Example 16] | 162 | 95 | 255
8 | CO[C@@H](C)COc1cc(OC2CN(C(=O)NCCN(C)C)C2)c2cc(C3CC3)c(-c3c(C)c(F)cc4[nH]ncc34)c(OCc3ccc(C(=O)N4CCN(Cc5ccc6c(N7CCC(=O)NC7=O)nn(C)c6c5)C[C@@H]4C)cc3)c2n1 (atropisomer, axis not shown) [Example 18] | 65 | 78 | 149
9 | CO[C@@H](C)COc1nc(N2CC[C@H]2C(N)=O)c2cc(C3CC3)c(-c3c(C)c(F)cc4[nH]ncc34)c(OCc3ccc(CN4CCN(Cc5ccc6c(N7CCC(=O)NC7=O)nn(C)c6c5)C[C@@H]4C)cc3)c2n1 (atropisomer, axis not shown) [Example 19] | 26 | 78 | 68
10 | CO[C@@H](C)COc1nc(N2CC[C@H]2C(N)=O)c2cc(C3CC3)c(-c3c(C)c(F)cc4[nH]ncc34)c(OCc3ccc(CN4CCN(Cc5ccc6c(N7CCC(=O)NC7=O)nn(C)c6c5)CC4=O)cc3)c2n1 (atropisomer, axis not shown) [Example 20, (2S)-1-{(7 M)-6-cyclopropyl-8-({4-[(4-{[3-(2,4-dioxo-1,3-diazinan-1-yl)-1-methyl-1H-indazol-6-yl]methyl)-2-oxopiperazin-1-yl)methyl]phenyl}methoxy)-7-(6-fluoro-5-methyl-1H-indazol-4-yl)-2-[(2S)-2-methoxypropoxy]quinazolin-4-yl)azetidine-2-carboxyamide] | 29 | 85 | 85
11 | CO[C@@H](C)COc1nc(OC2CN(C(=O)NCCN(C)C)C2)c2cc(C3CC3)c(-c3c(C)c(F)cc4[nH]ncc34)c(OCc3ccc(C(=O)N4CCN(Cc5ccc6c(c5)n(C)c(=O)n6C5CCC(=O)NC5=O)C[C@@H]4C)cc3)c2n1 (some centres unmarked) [Example 1] | 6 | 77 | 42

Now those with a lower IC50 [1], led by results:

Row | DC50 (RAS G12V) [nM] | Dmax (RAS G12V) [%] | IC50 [1] [nM] | Compound
12 | 5 | 97 | 15 | CO[C@@H](C)COc1nc(N2CC[C@H]2C(N)=O)c2cc(C3CC3)c(-c3c(C)c(F)cc4[nH]ncc34)c(OCc3ccc(C(=O)N4CCN(Cc5ccc6c(N7CCC(=O)NC7=O)nn(C)c6c5)C[C@@H]4C)cc3)c2n1 (atropisomer, axis not shown) [Example 5, (2S)-1-((7 M)-6-cyclopropyl-8-((4-[(2S)-4-{[3-(2,4-dioxo-1,3-diazinan-1-yl)-1-methyl-1H-indazol-6-yl]methyl)-2-methylpiperazine-1-carbonyl]phenyl)methoxy)-7-(6-fluoro-5-methyl-1H-indazol-4-yl)-2-[(2S)-2-methoxypropoxy]quinazolin-4-yl}azetidine-2-carboxyamide]
13 | 11 | 88 | 18 | Cc1c(F)cc2[nH]ncc2c1-c1c(C2CC2)cc2c(N3CC(C#N)C3)nc(OCC(C)(C)CN(C)C)nc2c1OCc1ccc(C(=O)N2CCN(Cc3ccc4c(N5CCC(=O)NC5=O)nn(C)c4c3)C[C@@H]2C)cc1 (atropisomer, axis not shown) [Example 11]
14 | 4 | 100 | 12 | CO[C@@H](C)COc1nc(N2CC(C#N)C2)c2cc(C3CC3)c(-c3c(C)c(F)cc4[nH]ncc34)c(OCc3ccc(C(=O)N4CCN(Cc5ccc6c(N7CCC(=O)NC7=O)nn(C)c6c5)C[C@@H]4C)cc3)c2n1 (atropisomer, axis not shown) [Example 14]
15 |  |  | 11 | Cc1c(F)cc2[nH]ncc2c1-c1c(C2CC2)cc2c(N3CC(C#N)C3)nc(OC3CCOCC3)nc2c1OCc1ccc(C(=O)N2CCN(Cc3ccc4c(N5CCC(=O)NC5=O)nn(C)c4c3)C[C@@H]2C)cc1 (atropisomer, axis not shown) [Example 21]
16 |  |  | 5 | CO[C@@H](C)COc1nc(N2CC(C#N)C2)c2cc(C3CC3)c(-c3c(C)c(F)cc4[nH]ncc34)c(OCc3ccc(C(=O)N4CCC5(CCN(CCOc6cccc(N7CCC(=O)NC7=O)c6)CC5)CC4)cc3)c2n1 (atropisomer, axis not shown) [Example 22]
